In US10781224B2, “Bis(oxymethyl)phosphinic acid and biogenic metal salts thereof as regulators of plant growth and development” (priority 2016, dated 2020):

How the values were obtained:
[1] = system: corn (Krasnodar 385 MV variety); experiment: Corn seed treatment with BHMPA salts: germination energy and germination rate; type: in vivo
Description: Control—Soaking Seeds in Water;
(§1) Experimental versions—soaking seeds in BHMPA solutions and solutions of BHMPA Ca, Mg, Na, Co, Mn, Cu, and Zn salts at 1·10^−6-1·10^−12% concentrations (doses). The studies were conducted in laboratory in Petri dishes; seed bed—two layers of filter paper. 50 seeds soaked in water (control) and in the solutions of the tested compounds (experimental) were placed into each dish. Wheat, corn, and rice seeds were exposed for one hour.
Analysis was conducted according to the government standards GOST 12038-84 “Crop seeds. Technical conditions for determining the germination energy and germination rate”, GOST 12044-93 “Crop seeds. Methods for determining disease contamination.”
(§2) Seed germination energy and rate were calculated in percent as an arithmetic mean of the four experimental results (germination energy on the 4th day, wheat germination on the 8th day, rice and corn germination—on the 7th day). Germination was determined based on the germinating power indicators (length of the roots and sprouts and their wet and dry mass per 100 shoots).
(§3) The effect of pre-sowing seed treatment with the claimed BHMPA salts of biogenic metals was studied on winter wheat (Vershin variety), corn (Krasnodar 385 MV variety), and rice (Diamant variety).

rice (Diamant variety) = experiment: Rice seed treatment with BHMPA salts: germinating power; type: in vivo
Description: as §1, §2, §3
The above data describe the seed viability only at the initial stage of germination, while the germination ability at the later stage of germination is defined by the initial germinating power. The method for the determination of the germinating power comprises measuring the height of the sprouts and primary roots, as well as the biomass and the dry mass thereof per 100 seedlings. [M. A. Kartuzova. Initial Germinating Power as Method of Biological Assessment of Seed Quality. Selection and Seed Farming, #2, 1953].

[2] = comparative study vs Melaphen, 1·10^−10% solution
[3] = rice seed treatment, comparison with Melaphen (Table XXXIII), solution 1 · 10^−9%
[4] = rice seeds, solution concentration 1 · 10^−6%
[5] = rice seeds, solution concentration 1 · 10^−7%
[6] = rice seeds, solution concentration 1 · 10^−8%
[7] = rice seeds, solution concentration 1 · 10^−9%
[8] = rice seeds, solution concentration 1 · 10^−10%
[9] = rice seeds, solution concentration 1 · 10^−11%
[10] = rice seeds, solution concentration 1 · 10^−12%
[11] = rice, vs control, 1·10^−9% solution

## O=P([O-])(CO)CO.O=P([O-])(CO)CO.[Ca+2] [Ca-salt, Calcium BHMPA Salt]
[1]; 1·10^−6% solution
  Germination energy: 74.3%
  Germination rate: 77.0%
[1]; 1·10^−7% solution
  Germination energy: 77.3%
  Germination rate: 82.0%
[1]; 1·10^−8% solution
  Germination energy: 81.8%
  Germination rate: 84.2%
[1]; 1·10^−9% solution
  Germination energy: 85.0%
  Germination rate: 87.7%
[1]; 1·10^−10% solution
  Germination energy: 87.8%
  Germination rate: 90.0%
[1]; 1·10^−11% solution
  Germination energy: 85.5%
  Germination rate: 88.3%
[1]; 1·10^−12% solution
  Germination energy: 82.3%
  Germination rate: 85.0%
[1]; [2]
  Germination energy: 85.0%
  Germination rate: 95.3%
Rice (Diamant variety); rice
  optimum concentration for treating rice seeds before sowing: 1·10^−9%
Rice (Diamant variety); [3]
  Length, root: 6.2 cm
  Length, root, + % to control: 29%
  Length, sprout: 3.5 cm
  Length, sprout, + % to control: 35%
  Mass, dry, root: 0.23 g/100 plantlings
  Mass, dry, root, + % to control: 9.5%
  Mass, dry, sprout: 0.27 g/100 plantlings
  Mass, dry, sprout, + % to control: 8%
  Mass, wet, root: 1.33 g/100 plantlings
  Mass, wet, root, + % to control: 36%
  Mass, wet, sprout: 2.24 g/100 plantlings
  Mass, wet, sprout, + % to control: 48%
Rice (Diamant variety); [4]
  Length, root: 5.7 cm
  Length, root, + % to control: 10%
  Length, sprout: 2.8 cm
  Length, sprout, + % to control: 12%
  Mass, dry, root: 0.19 g/100 plantlings
  Mass, dry, root, + % to control: 12%
  Mass, dry, sprout: 0.23 g/100 plantlings
  Mass, dry, sprout, + % to control: 9.5%
  Mass, wet, root: 1.10 g/100 plantlings
  Mass, wet, root, + % to control: 14.5%
  Mass, wet, sprout: 1.92 g/100 plantlings
  Mass, wet, sprout, + % to control: 9%
Rice (Diamant variety); [5]
  Length, root: 5.9 cm
  Length, root, + % to control: 13%
  Length, sprout: 3.0 cm
  Length, sprout, + % to control: 20%
  Mass, dry, root: 0.24 g/100 plantlings
  Mass, dry, root, + % to control: 41%
  Mass, dry, sprout: 0.26 g/100 plantlings
  Mass, dry, sprout, + % to control: 24%
  Mass, wet, root: 1.21 g/100 plantlings
  Mass, wet, root, + % to control: 26%
  Mass, wet, sprout: 2.16 g/100 plantlings
  Mass, wet, sprout, + % to control: 23%
Rice (Diamant variety); [6]
  Length, root: 6.3 cm
  Length, root, + % to control: 21%
  Length, sprout: 3.1 cm
  Length, sprout, + % to control: 24%
  Mass, dry, root: 0.27 g/100 plantlings
  Mass, dry, root, + % to control: 59%
  Mass, dry, sprout: 0.28 g/100 plantlings
  Mass, dry, sprout, + % to control: 33%
  Mass, wet, root: 1.24 g/100 plantlings
  Mass, wet, root, + % to control: 29%
  Mass, wet, sprout: 2.25 g/100 plantlings
  Mass, wet, sprout, + % to control: 28%
Rice (Diamant variety); [7]
  Length, root: 6.6 cm
  Length, root, + % to control: 27%
  Length, sprout: 3.2 cm
  Length, sprout, + % to control: 28%
  Mass, dry, root: 0.30 g/100 plantlings
  Mass, dry, root, + % to control: 76%
  Mass, dry, sprout: 0.32 g/100 plantlings
  Mass, dry, sprout, + % to control: 52%
  Mass, wet, root: 1.29 g/100 plantlings
  Mass, wet, root, + % to control: 34%
  Mass, wet, sprout: 2.36 g/100 plantlings
  Mass, wet, sprout, + % to control: 34%
Rice (Diamant variety); [8]
  Length, root: 6.4 cm
  Length, root, + % to control: 23%
  Length, sprout: 3.0 cm
  Length, sprout, + % to control: 20%
  Mass, dry, root: 0.28 g/100 plantlings
  Mass, dry, root, + % to control: 65%
  Mass, dry, sprout: 0.29 g/100 plantlings
  Mass, dry, sprout, + % to control: 38%
  Mass, wet, root: 1.27 g/100 plantlings
  Mass, wet, root, + % to control: 32%
  Mass, wet, sprout: 2.28 g/100 plantlings
  Mass, wet, sprout, + % to control: 29.5%
Rice (Diamant variety); [9]
  Length, root: 6.0 cm
  Length, root, + % to control: 15%
  Length, sprout: 2.9 cm
  Length, sprout, + % to control: 16%
  Mass, dry, root: 0.23 g/100 plantlings
  Mass, dry, root, + % to control: 35%
  Mass, dry, sprout: 0.27 g/100 plantlings
  Mass, dry, sprout, + % to control: 28.5%
  Mass, wet, root: 1.22 g/100 plantlings
  Mass, wet, root, + % to control: 27%
  Mass, wet, sprout: 1.98 g/100 plantlings
  Mass, wet, sprout, + % to control: 12.5%
Rice (Diamant variety); [10]
  Length, root: 5.6 cm
  Length, root, + % to control: 8%
  Length, sprout: 2.7 cm
  Length, sprout, + % to control: 8%
  Mass, dry, root: 0.19 g/100 plantlings
  Mass, dry, root, + % to control: 12%
  Mass, dry, sprout: 0.26 g/100 plantlings
  Mass, dry, sprout, + % to control: 24%
  Mass, wet, root: 1.06 g/100 plantlings
  Mass, wet, root, + % to control: 10%
  Mass, wet, sprout: 1.88 g/100 plantlings
  Mass, wet, sprout, + % to control: 7%
Rice (Diamant variety); [11]
  dry mass of the roots increased by: 76%
  dry mass of the sprouts increased by: 52%
  length of the root increased by: 27%
  length of the sprout increased by: 28%
  wet mass of the roots increased by: 34%
  wet mass of the sprouts increased by: 34%
